Experimental data taken from ChEMBL document CHEMBL1201862, “PubChem BioAssay data set” (2004).
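Exposure lasted 48 hours, with cells grown in 96-well plates and compounds tested at five concentrations. The concentration for 50% growth inhibition is given as GI50.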 The source made the active and inactive calls. No stated cut-off is given here; in the data, active = GI50 up to about 1.1 µM and inactive = higher.

Key:
Assay in all cases: inhibition of tumour cell growth, NCI panel, 48 h
A498 = test system: A498
A549 = test system: A549
HCC 2998 = test system: HCC 2998
HT-29 = test system: HT-29
IGROV-1 = test system: IGROV-1
K562 = test system: K562
KM-20L2 = test system: KM-20L2
NCI-H460 = test system: NCI-H460
SF-268 = test system: SF-268
SW-620 = test system: SW-620
UO-31 = test system: UO-31
NCI-H23 = test system: NCI-H23
Hs-578T = test system: Hs-578T
MCF7 = test system: MCF7
MDA-MB-231 = test system: MDA-MB-231
MDA-N = test system: MDA-N
NCI-H226 = test system: NCI-H226
NCI/ADR-RES = test system: NCI/ADR-RES
SR = test system: SR
T47D = test system: T47D

SMILES | GI50 (A498) | GI50 (A549) | GI50 (HCC 2998) | GI50 (HT-29) | GI50 (IGROV-1) | GI50 (K562) | GI50 (KM-20L2) | GI50 (NCI-H460) | GI50 (SF-268) | GI50 (SW-620) | GI50 (UO-31) | GI50 (NCI-H23) | GI50 (Hs-578T) | GI50 (MCF7) | GI50 (MDA-MB-231) | GI50 (MDA-N) | GI50 (NCI-H226) | GI50 (NCI/ADR-RES) | GI50 (SR) | GI50 (T47D)
COc1ccc(OCC(=O)O)c2c1CCC(C)C2=O (stereo not given) | > 100 µM (inactive) | > 100 µM (inactive) | > 100 µM (inactive) | > 100 µM (inactive) | > 100 µM (inactive) | > 100 µM (inactive) | > 100 µM (inactive) | > 100 µM (inactive) | > 100 µM (inactive) | > 100 µM (inactive) | > 100 µM (inactive) |  |  |  |  |  |  |  |  | 
Cc1cc2c(c(C(N)=O)c1C)-c1cccc(Cl)c1C2=O | > 100 µM (inactive) | > 100 µM (inactive) | > 100 µM (inactive) | > 100 µM (inactive) | > 100 µM (inactive) | > 100 µM (inactive) | > 100 µM (inactive) | > 100 µM (inactive) | > 100 µM (inactive) | > 100 µM (inactive) | 41.6 µM (inactive) | > 100 µM (inactive) |  |  |  |  |  |  |  | 
O=c1oc2ccccc2cc1-c1csc(Nc2ccc(F)cc2)n1 | 1.29 µM (inactive) | 1.67 µM (inactive) | 5.48 µM (inactive) | 3.43 µM (inactive) | 4.99 µM (inactive) | 2.56 µM (inactive) |  | 5.05 µM (inactive) | 3.15 µM (inactive) | 5 µM (inactive) | 2.33 µM (inactive) | 2.9 µM (inactive) | 2.36 µM (inactive) | 2.77 µM (inactive) | 11.3 µM (inactive) | 4.66 µM (inactive) | 3.1 µM (inactive) | 3.46 µM (inactive) | 2.36 µM (inactive) | 2.3 µM (inactive)
CC1CC(C)C2=NOS3=C2C1=NO3 (stereo not given) | 12.9 µM (inactive) | > 100 µM (inactive) | > 100 µM (inactive) | > 100 µM (inactive) | 58.7 µM (inactive) | 53.8 µM (inactive) |  | > 100 µM (inactive) | > 100 µM (inactive) | > 100 µM (inactive) | > 100 µM (inactive) | > 100 µM (inactive) | > 100 µM (inactive) | 82.8 µM (inactive) | > 100 µM (inactive) | > 100 µM (inactive) | > 100 µM (inactive) | > 100 µM (inactive) | > 100 µM (inactive) | > 100 µM (inactive)
O=c1[nH]c2c(Nc3c4ccccc4nc4ccccc34)c([N+](=O)[O-])c(Nc3c4ccccc4nc4ccccc34)c([N+](=O)[O-])c2[nH]1 | 1.32 µM (inactive) | 1.55 µM (inactive) | 1.73 µM (inactive) | 0.618 µM (active) | 1.69 µM (inactive) | 2.59 µM (inactive) |  | 1.33 µM (inactive) | 1.98 µM (inactive) | 1.17 µM (inactive) | 1.24 µM (inactive) | 1.26 µM (inactive) | 2.27 µM (inactive) | 1.53 µM (inactive) | 2.06 µM (inactive) | 2.36 µM (inactive) | 2.68 µM (inactive) | 1.01 µM (active) | 0.741 µM (active) | 3.29 µM (inactive)
COC(=O)/C(C#N)=C(\Nc1ccccc1)N1CCOCC1 | > 100 µM (inactive) | > 100 µM (inactive) | > 100 µM (inactive) | > 100 µM (inactive) | > 100 µM (inactive) | > 100 µM (inactive) |  | > 100 µM (inactive) | > 100 µM (inactive) | > 100 µM (inactive) | > 100 µM (inactive) | > 100 µM (inactive) | > 100 µM (inactive) | > 100 µM (inactive) | > 100 µM (inactive) | > 100 µM (inactive) | > 100 µM (inactive) | > 100 µM (inactive) | > 100 µM (inactive) | > 100 µM (inactive)
CC(=O)O[C@H]1C(=O)[C@@]2(C)C(C(OC(=O)c3ccccc3)[C@]3(O)CC(OC(=O)C(O)C(NC(=O)c4ccc(C)cc4)c4ccccc4)C(C)=C1C3(C)C)[C@]1(OC(C)=O)CO[C@@H]1C[C@@H]2O (stereo not given in full) | 0.00596 µM (active) | 0.00504 µM (active) |  | < 0.0025 µM (active) | < 0.0025 µM (active) | < 0.0025 µM (active) | 0.00305 µM (active) | < 0.0025 µM (active) | 0.00573 µM (active) |  | 0.826 µM (active) | 0.00785 µM (active) |  |  |  |  |  |  |  | 
O=c1ccccc2cccc(O)c12 | > 100 µM (inactive) | > 100 µM (inactive) | > 100 µM (inactive) | > 100 µM (inactive) | > 100 µM (inactive) | > 100 µM (inactive) | > 100 µM (inactive) | > 100 µM (inactive) |  | > 100 µM (inactive) |  | > 100 µM (inactive) |  |  |  |  |  |  |  | 
N=C(N)Nc1ccc(-c2ccc(NC(=N)N)cc2)cc1 | 6.95 µM (inactive) | 6.03 µM (inactive) | 63 µM (inactive) | 45.5 µM (inactive) | 20.2 µM (inactive) | 35.4 µM (inactive) |  | 17.1 µM (inactive) | 37.3 µM (inactive) | 62.5 µM (inactive) | 46.1 µM (inactive) | 35.6 µM (inactive) | 19.4 µM (inactive) | 39.2 µM (inactive) | > 100 µM (inactive) | 40.7 µM (inactive) | 15.7 µM (inactive) | 42.5 µM (inactive) | 14.6 µM (inactive) | 44.4 µM (inactive)
O/N=C1\C/C(=N\O)c2c(Br)sc(Br)c21 | 58.1 µM (inactive) | 26.2 µM (inactive) | 23.7 µM (inactive) | > 100 µM (inactive) | 30.4 µM (inactive) | 37.5 µM (inactive) |  | > 100 µM (inactive) | 17.4 µM (inactive) | 26.4 µM (inactive) | 20.6 µM (inactive) | 20.4 µM (inactive) | 0.216 µM (active) | 38.3 µM (inactive) | 77.1 µM (inactive) | 78.5 µM (inactive) | 51.8 µM (inactive) | 30.2 µM (inactive) | 8.99 µM (inactive) | 31.3 µM (inactive)
CCCC(CC)c1c(O)c(O)c(C(CC)CCC)c(C(CC)CCC)c1C(CC)CCC (stereo not given) | > 10 µM (inactive) | > 10 µM (inactive) | > 10 µM (inactive) | > 10 µM (inactive) | > 10 µM (inactive) | > 10 µM (inactive) |  | > 10 µM (inactive) | > 10 µM (inactive) | > 10 µM (inactive) | > 10 µM (inactive) | > 10 µM (inactive) | > 10 µM (inactive) | > 10 µM (inactive) | > 10 µM (inactive) | > 10 µM (inactive) | > 10 µM (inactive) | > 10 µM (inactive) | > 10 µM (inactive) | > 10 µM (inactive)
C/C(=N\Nc1nc2ccccc2n1C)c1ccc2ccccc2n1 | 3.69 µM (inactive) | 2.71 µM (inactive) | 0.256 µM (active) | 0.0861 µM (active) | 0.016 µM (active) | 2.07 µM (inactive) |  | 2.56 µM (inactive) | 2.87 µM (inactive) | 0.35 µM (active) | 1.04 µM (active) | 4.41 µM (inactive) | 15.4 µM (inactive) | 0.406 µM (active) | 0.916 µM (active) | 5.04 µM (inactive) | 1.87 µM (inactive) | 1.63 µM (inactive) | 0.51 µM (active) | < 0.01 µM (active)
